Assay results: PubChem BioAssay (NCI)
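Five compound concentrations were applied to cells in 96-well plates for 48 hours; endpoints were derived by simple linear interpolation of the resulting dose-response curve. GI50: concentration for 50% inhibition of growth. The concentration for full growth arrest is given as TGI.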

How the values were obtained:
Assay in all cases: growth of human tumour cells (NCI), 48 h
786-0 renal = system: 786-0 renal
A498 renal = system: A498 renal
A549 NSCLC = system: A549 NSCLC
ACHN renal = system: ACHN renal
BT-549 breast = system: BT-549 breast
CAKI-1 renal = system: CAKI-1 renal
CCRF-CEM leukemia = system: CCRF-CEM leukemia
COLO 205 colon = system: COLO 205 colon
DU-145 prostate = system: DU-145 prostate
EKVX NSCLC = system: EKVX NSCLC
HCC-2998 colon = system: HCC-2998 colon
HCT-116 colon = system: HCT-116 colon
HCT-15 colon = system: HCT-15 colon
HL-60(TB) leukemia = system: HL-60(TB) leukemia
HOP-62 NSCLC = system: HOP-62 NSCLC
HOP-92 NSCLC = system: HOP-92 NSCLC
HS 578T breast = system: HS 578T breast
HT29 colon = system: HT29 colon
IGROV1 ovarian = system: IGROV1 ovarian
K-562 leukemia = system: K-562 leukemia
KM12 colon = system: KM12 colon
LOX IMVI melanoma = system: LOX IMVI melanoma
M14 melanoma = system: M14 melanoma
MALME-3M melanoma = system: MALME-3M melanoma
MCF7 breast = system: MCF7 breast
MDA-MB-231 breast = system: MDA-MB-231 breast
MDA-MB-435 = system: MDA-MB-435
MDA-MB-468 breast = system: MDA-MB-468 breast
MOLT-4 leukemia = system: MOLT-4 leukemia
NCI-H226 lung = system: NCI-H226 lung
NCI-H23 lung = system: NCI-H23 lung
NCI-H460 lung = system: NCI-H460 lung
NCI-H522 lung = system: NCI-H522 lung
NCI/ADR-RES ovarian = system: NCI/ADR-RES ovarian
OVCAR-3 ovarian = system: OVCAR-3 ovarian
OVCAR-4 ovarian = system: OVCAR-4 ovarian
OVCAR-5 ovarian = system: OVCAR-5 ovarian
OVCAR-8 ovarian = system: OVCAR-8 ovarian
PC-3 prostate = system: PC-3 prostate
RPMI-8226 leukemia = system: RPMI-8226 leukemia
RXF 393 renal = system: RXF 393 renal
SF-268 CNS = system: SF-268 CNS
SF-295 CNS = system: SF-295 CNS
SF-539 CNS = system: SF-539 CNS
SK-MEL-2 melanoma = system: SK-MEL-2 melanoma
SK-MEL-28 melanoma = system: SK-MEL-28 melanoma
SK-MEL-5 melanoma = system: SK-MEL-5 melanoma
SK-OV-3 ovarian = system: SK-OV-3 ovarian
SN12C renal = system: SN12C renal
SNB-19 CNS = system: SNB-19 CNS
SNB-75 CNS = system: SNB-75 CNS
SR leukemia = system: SR leukemia
SW-620 colon = system: SW-620 colon
T-47D breast = system: T-47D breast
TK-10 renal = system: TK-10 renal
U251 CNS = system: U251 CNS
UACC-257 melanoma = system: UACC-257 melanoma
UACC-62 melanoma = system: UACC-62 melanoma
UO-31 renal = system: UO-31 renal

Compound `COc1ccc(/C=C/C(=O)c2ccc(N3CCN(C)CC3)cc2)c(C(F)(F)F)c1` has a GI50 (786-0 renal) of 12.5 µM, a TGI (786-0 renal) of 37.7 µM and a GI50 (A498 renal) of 16.5 µM. The TGI (A498 renal) was 30.8 µM, the GI50 (A549 NSCLC) was 13.2 µM and the TGI (A549 NSCLC) was 30.1 µM. It also gave a GI50 (ACHN renal) of 15.1 µM, a TGI (ACHN renal) of 28.3 µM and a GI50 (BT-549 breast) of 14.5 µM. It also gave a TGI (BT-549 breast) of 29.1 µM, a GI50 (CAKI-1 renal) of 14.2 µM and a TGI (CAKI-1 renal) of 27.5 µM. For the same compound, the GI50 (CCRF-CEM leukemia) was 7.61 µM, the TGI (CCRF-CEM leukemia) was 53.1 µM and the GI50 (COLO 205 colon) was 15.6 µM. It also gave a TGI (COLO 205 colon) of 35.5 µM, a GI50 (DU-145 prostate) of 14.9 µM and a TGI (DU-145 prostate) of 31.2 µM. For the same compound, the GI50 (EKVX NSCLC) was 12.7 µM, the TGI (EKVX NSCLC) was 25.4 µM and the GI50 (HCC-2998 colon) was 12 µM. It also gave a TGI (HCC-2998 colon) of 24.3 µM, a GI50 (HCT-116 colon) of 5.61 µM and a TGI (HCT-116 colon) of 39 µM. The GI50 (HCT-15 colon) was 4.61 µM, the TGI (HCT-15 colon) was 16.5 µM and the GI50 (HL-60(TB) leukemia) was 4.87 µM. For the same compound, the TGI (HL-60(TB) leukemia) was 24.7 µM, the GI50 (HOP-62 NSCLC) was 19.3 µM and the TGI (HOP-62 NSCLC) was 37 µM. It also gave a GI50 (HOP-92 NSCLC) of 10.1 µM, a TGI (HOP-92 NSCLC) of 25.8 µM and a GI50 (HS 578T breast) of 14.9 µM. For the same compound, the TGI (HS 578T breast) was 46.5 µM, the GI50 (HT29 colon) was 4.88 µM and the TGI (HT29 colon) was 22.3 µM. It also gave a GI50 (IGROV1 ovarian) of 15.4 µM, a TGI (IGROV1 ovarian) of 29 µM and a GI50 (K-562 leukemia) of 2.96 µM. For the same compound, the TGI (K-562 leukemia) was 22.1 µM, the GI50 (KM12 colon) was 11 µM and the TGI (KM12 colon) was 24.9 µM. The GI50 (LOX IMVI melanoma) was 8.56 µM, the TGI (LOX IMVI melanoma) was 20.9 µM and the GI50 (M14 melanoma) was 14.4 µM. The TGI (M14 melanoma) was 34.5 µM, the GI50 (MALME-3M melanoma) was 12.9 µM and the TGI (MALME-3M melanoma) was 25.6 µM. For the same compound, the GI50 (MCF7 breast) was 4.6 µM, the TGI (MCF7 breast) was 19.5 µM and the GI50 (MDA-MB-231 breast) was 16.8 µM. For the same compound, the TGI (MDA-MB-231 breast) was 30.5 µM, the GI50 (MDA-MB-435) was 11.3 µM and the TGI (MDA-MB-435) was 24.7 µM. The GI50 (MDA-MB-468 breast) was 3.54 µM, the TGI (MDA-MB-468 breast) was 13.9 µM and the GI50 (MOLT-4 leukemia) was 9.11 µM. The TGI (MOLT-4 leukemia) was 32.8 µM, the GI50 (NCI-H226 lung) was 12.4 µM and the TGI (NCI-H226 lung) was 28.3 µM. For the same compound, the GI50 (NCI-H23 lung) was 11.2 µM, the TGI (NCI-H23 lung) was 23.2 µM and the GI50 (NCI-H460 lung) was 14 µM. The TGI (NCI-H460 lung) was 27.9 µM, the GI50 (NCI-H522 lung) was 15.9 µM and the TGI (NCI-H522 lung) was 31.9 µM. For the same compound, the GI50 (NCI/ADR-RES ovarian) was 13.2 µM, the TGI (NCI/ADR-RES ovarian) was 26.4 µM and the GI50 (OVCAR-3 ovarian) was 14.4 µM. It also gave a TGI (OVCAR-3 ovarian) of 29.3 µM, a GI50 (OVCAR-4 ovarian) of 15.5 µM and a TGI (OVCAR-4 ovarian) of 34.4 µM. The GI50 (OVCAR-5 ovarian) was 16.2 µM, the TGI (OVCAR-5 ovarian) was 29.7 µM and the GI50 (OVCAR-8 ovarian) was 20.8 µM. It also gave a TGI (OVCAR-8 ovarian) of 49.3 µM, a GI50 (PC-3 prostate) of 13.2 µM and a TGI (PC-3 prostate) of 40.4 µM. It also gave a GI50 (RPMI-8226 leukemia) of 3.4 µM, a TGI (RPMI-8226 leukemia) of 47.7 µM and a GI50 (RXF 393 renal) of 4.12 µM. It also gave a TGI (RXF 393 renal) of 18.9 µM, a GI50 (SF-268 CNS) of 18.9 µM and a TGI (SF-268 CNS) of 41 µM. For the same compound, the GI50 (SF-295 CNS) was 13.9 µM, the TGI (SF-295 CNS) was 27.2 µM and the GI50 (SF-539 CNS) was 14.2 µM. For the same compound, the TGI (SF-539 CNS) was 27.2 µM, the GI50 (SK-MEL-2 melanoma) was 17.5 µM and the TGI (SK-MEL-2 melanoma) was 32.7 µM. The GI50 (SK-MEL-28 melanoma) was 14.7 µM, the TGI (SK-MEL-28 melanoma) was 27.9 µM and the GI50 (SK-MEL-5 melanoma) was 7.97 µM. It also gave a TGI (SK-MEL-5 melanoma) of 20.6 µM, a GI50 (SK-OV-3 ovarian) of 16.7 µM and a TGI (SK-OV-3 ovarian) of 33.5 µM. For the same compound, the GI50 (SN12C renal) was 13.3 µM, the TGI (SN12C renal) was 26.4 µM and the GI50 (SNB-19 CNS) was 14.8 µM. For the same compound, the TGI (SNB-19 CNS) was 27.9 µM, the GI50 (SNB-75 CNS) was 11.7 µM and the TGI (SNB-75 CNS) was 24.5 µM. For the same compound, the GI50 (SR leukemia) was 6.74 µM, the TGI (SR leukemia) was greater than 100 µM and the GI50 (SW-620 colon) was 11.2 µM. For the same compound, the TGI (SW-620 colon) was 23.9 µM, the GI50 (T-47D breast) was 13.7 µM and the TGI (T-47D breast) was 34.6 µM. The GI50 (TK-10 renal) was 17.7 µM, the TGI (TK-10 renal) was 32.8 µM and the GI50 (U251 CNS) was 11.7 µM. It also gave a TGI (U251 CNS) of 34.4 µM, a GI50 (UACC-257 melanoma) of 15.3 µM and a TGI (UACC-257 melanoma) of 30.8 µM. For the same compound, the GI50 (UACC-62 melanoma) was 14.1 µM, the TGI (UACC-62 melanoma) was 27 µM and the GI50 (UO-31 renal) was 12.3 µM. For the same compound, the TGI (UO-31 renal) was 24.7 µM.
